This is an account of results in paper PMC12022980, “Rational Design of PROTAC Linkers Featuring Ferrocene as a Molecular Hinge to Enable Dynamic Conformational Changes” (Journal of the American Chemical Society, 2025).

Where two headings read alike, the source gives them in different places.

One assay has as its target T1, pVHL30 (Homo sapiens, UniProt P40337).
T1 construct: endogenous in cells; host or cells: HEK293 (ATCC)
Put plainly: Western blot VHL degradation in HEK293 cells. It is filed as cell-based. Background: Immunoblotting shows a protein as a band on a membrane.

For assay [1], the target named is VCB protein complex (VHL:ElonginC:ElonginB) (Homo sapiens, UniProt P40337). Put plainly: Native gel electrophoresis assay for ternary complex formation. The assay is classed as binding. The conditions noted are these: VCB incubated with PROTAC 30 min, room temperature. The source says:
To monitor ternary complex formation mediated by FerroTACs, we leveraged native gel electrophoresis assay, a methodology recently validated to assess VHL dimerization by homo-PROTACs.[41] This in vitro approach serves as a rapid semiqualitative tool to evaluate homo-FerroTAC activity in promoting stable ternary protein complexes. The technique is user-friendly, suitable for higher throughput, and requires lower protein quantities compared to other biophysical methods. The recombinant VCB protein complex (VHL:ElonginC:ElonginB) was incubated with the corresponding Homo-PROTACs (CM11, AS1, cisAS1, AS2) for 30 min at room temperature, followed by non-denaturing gel electrophoresis. Ternary complex formation was indicated by an upward shift in the protein band on the gel, in agreement with the higher molecular weight of the complex. […]
antibody (LI-COR #926-32213, 1:5,000) or IRDye 800CW donkey anti-mouse secondary antibody, (Li-COR […]
room temperature and protected from light. Thereafter, the membranes were washed with TBS-T three times for 10 min, and protein bands were acquired using a ChemiDoc MP imaging system (Bio-Rad). Band quantification was performed using Image Lab software and reported as ratio of each protein band relative to the lane’s loading control. The values obtained were then normalised to vehicle control.
Native Gel Electrophoresis Assay
Gel casting. […]

T1 sequence (P40337 whole entry): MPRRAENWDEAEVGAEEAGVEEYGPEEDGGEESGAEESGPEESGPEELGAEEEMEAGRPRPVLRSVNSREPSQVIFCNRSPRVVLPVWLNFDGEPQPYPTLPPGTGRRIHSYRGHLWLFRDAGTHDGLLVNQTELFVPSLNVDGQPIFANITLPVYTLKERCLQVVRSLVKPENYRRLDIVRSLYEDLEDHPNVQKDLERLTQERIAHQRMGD
Sequence of VCB protein complex (VHL:ElonginC:ElonginB) (P40337 54-213 limits assumed, species assumed): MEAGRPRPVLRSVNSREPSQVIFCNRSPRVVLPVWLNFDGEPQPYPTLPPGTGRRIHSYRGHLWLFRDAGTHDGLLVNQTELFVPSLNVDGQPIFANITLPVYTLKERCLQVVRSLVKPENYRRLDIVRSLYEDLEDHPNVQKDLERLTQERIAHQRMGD
Sequence of VCB protein complex (VHL:ElonginC:ElonginB) (Q15369 17-112 partner limits assumed, species assumed): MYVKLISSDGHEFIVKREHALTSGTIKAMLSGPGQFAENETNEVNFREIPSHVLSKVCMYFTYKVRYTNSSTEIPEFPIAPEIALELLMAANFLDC
Sequence of VCB protein complex (VHL:ElonginC:ElonginB) (Q15370 1-104 partner limits assumed, species assumed): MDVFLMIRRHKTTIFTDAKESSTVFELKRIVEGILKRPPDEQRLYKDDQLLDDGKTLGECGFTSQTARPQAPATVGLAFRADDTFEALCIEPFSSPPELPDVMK
Protocol for pVHL30: To further elucidate the mode of action of FerroTAC AS2, we explored its dependency on ubiquitination and proteasome activity.
A) Representative immunoblots of VHL protein levels after treatment of
HEK293 cells. Cells were treated with 0.1% EtOH, 0.1 μM or 1 μM of the indicated compounds for 4 and 24 h.
Controls were included at 1 μM for 24 h. Mean values of two biologically independent experiments.
Representative time-course immunoblots of VHL protein levels after treatment of HEK293 cells treated with
Cells were treated with 0.1% EtOH and controls at 1 μM. Mean values of two biologically
independent experiments. Apparent half-life values (t 1/2) were estimated by fitting band intensity against time
using a single-phase exponential decay model. C) Representative immunoblots of VHL protein levels in
neddylation inhibitor MLN4924 (3 μM) and VHL inhibitor VH032 (50 μM). The amount of EtOH (0.1%) and
DMSO (0.5%) is fixed in all samples. Band quantification was performed using ImageJ software and reported
(in black and black) as relative amount as ratio of each protein band relative to the lane’s loading control
(tubulin). VHL/tubulin protein ratios were normalised to the average of the controls (100%).
HEK293 and HCT116 cell lines, purchased from ATCC, were cultured in Dulbecco’s modified Eagle’s medium (DMEM, Gibco) supplemented with 10% fetal bovine serum (FBS, Gibco), L-glutamine (2 mM, Gibco) and 100 μg/mL of penicillin/streptomycin (Gibco). All cell lines were maintained in a humidified incubator at 37 °C and 5% CO2 for no more than 30 passages. Cells were routinely tested for mycoplasma contamination.
Cell Treatment for Immunoblotting
depending on the experimental setup. Cells were treated in fresh medium with the indicated compounds under indicated conditions with a final EtOH or iPrOH concentration of 0.01% (v/v) to 0.1% (v/v) depending on the experimental setup. […]
stored at −80°C. Protein concentration was determined by bicinchoninic acid (BCA) assay (Thermo Fisher […]
Quantitative Immunoblotting […]

By Dmax is commonly meant the greatest extent of degradation seen. As to `Cc1ncsc1-c1ccc(CNC(=O)[C@@H]2C[C@@H](O)CN2C(=O)[C@@H](NC(=O)COCCOCCOCCOCCOCCOCC(=O)N[C@H](C(=O)N2C[C@H](O)C[C@H]2C(=O)NCc2ccc(-c3scnc3C)cc2)C(C)(C)C)C(C)(C)C)cc1` [CM11], the Dmax at 1 µM on pVHL30 (HEK293, 4 h, read-out: Dmax at 1 μM (pVHL30)) was 98%; on pVHL30 (HEK293, 24 h, read-out: maximal degradation (Dmax) of pVHL30), 100%. In assay [1], the “ternary complex formation, native gel (in words)” value is given as “induced formation of an up-shifted protein band”.
